Measurements published in EP4817687A2, “NUCLEOTIDE AND NUCLEOSIDE THERAPEUTIC COMPOSITIONS AND USES RELATED THERETO” (Emory University, priority 2013, dated 2015).
Where two headings read alike, the source gives them in different places.

Assays:
[1] = target: HCV NS5B polymerase (Hepatitis C virus genotype 1b, UniProt Q9WMX2); assay: HCV NS5B pol assay (NS5B RNA-dependent RNA polymerase reaction, filter binding); assay type: biochemical; details: 1 h; for IC25: read-out: HCV NS5B pol assay (^32P-GTP) IC25; for IC95: read-out: HCV NS5B pol assay (^32P-GTP) IC95
[2] = Cytotoxicity panel (CC50), Huh-7; assay type: cell-based, human; details: human, huh-7 cells
[3] = Cytotoxicity panel (CC50), HepG2; assay type: cell-based; details: human, hepg2 cells
[4] = Cytotoxicity panel (CC50), BxPC3; assay type: cell-based; details: human, bxpc3 cells
[5] = Cytotoxicity panel (CC50), CEM; assay type: cell-based; details: human, cem cells
[6] = Cytotoxicity panel (CC50), A204; assay type: cell-based; details: human, a204 cells
[7] = Cytotoxicity panel (CC50), IEC-6; assay type: cell-based; details: rat, iec-6 cells
[8] = Cytotoxicity panel (CC50), H9c; assay type: cell-based; details: rat, h9c cells
[9] = system: HepG2; assay: Cytotoxicity panel (CC50), HepG2; assay type: cell-based; details: HepG2
[10] = system: Huh-7; assay: Cytotoxicity panel (CC50), Huh-7; assay type: cell-based, human; details: Huh-7
[11] = system: BxPC3; assay: Cytotoxicity panel (CC50), BxPC3; assay type: cell-based; details: BxPC3
[12] = system: A204; assay: Cytotoxicity panel (CC50), A204; assay type: cell-based; details: A204
[13] = system: IEC-6; assay: Cytotoxicity panel (CC50), IEC-6; assay type: cell-based; details: IEC-6
[14] = system: H9c; assay: Cytotoxicity panel (CC50), H9c; assay type: cell-based; details: H9c
[15] = system: 2b (GT1b/2b NS5B chimera); assay: microbe, parasite or virus in culture; assay type: cell-based, HCV; details: Hepatitis C virus, read-out: EC50(µM) 2b (GT1b/2b NS5B chimera)
[16] = system: 3a (GT1b/3a NS5B chimera); assay: microbe, parasite or virus in culture; assay type: cell-based, HCV; details: Hepatitis C virus, read-out: EC50(µM) 3a (GT1b/3a NS5B chimera)
[17] = system: 4a (GT1b/4a NS5B chimera); assay: microbe, parasite or virus in culture; assay type: cell-based, HCV; details: Hepatitis C virus, read-out: EC50(µM) 4a (GT1b/4a NS5B chimera)
[18] = system: GT1b-NS5B-S96T; assay: microbe, parasite or virus in culture; assay type: cell-based, HCV; details: Hepatitis C virus, read-out: EC50(µM) GT1b-NS5B-S96T
[19] = system: GT1b-NS5B-S282T; assay: microbe, parasite or virus in culture; assay type: cell-based, HCV; details: Hepatitis C virus, read-out: EC50(µM) GT1b-NS5B-S282T
[20] = Cytotoxicity (CC50) in the GT1b replicon test; assay type: cell-based; details: gt1b replicon cells
[21] = Anti-Dengue assay, toxicity (XTT) in Vero cells; details: monkey
[22] = system: Dengue Type 2; assay: Anti-Dengue Virus Cytoprotection Assay, Dengue Type 2

## C[C@@]1(F)[C@H](O)[C@@H](COP(=O)(O)OP(=O)(O)OP(=O)(O)O)O[C@H]1n1ccc(=O)[nH]c1=O
[1]
  IC25: 0.52 µM
  IC95: 9.91 µM

## C[C@@]1(O)[C@H](O)[C@@H](COP(=O)(O)OP(=O)(O)OP(=O)(O)O)O[C@H]1n1ccc(=O)[nH]c1=[Se]
[1]
  IC25: 6.82 µM
  IC95: > 100 µM

## O=c1[nH]c(=S)ccn1[C@@H]1O[C@H](CO)[C@@H](O)[C@H]1O
[2]
  CC50: 60 µM

## C[C@@]1(O)[C@H](O)[C@@H](CO)O[C@H]1n1ccc(=S)[nH]c1=O
[2]
  CC50: > 100 µM
[3]
  CC50: > 400 µM
[4]
  CC50: > 100 µM
[5]
  CC50: > 400 µM

## C[C@@]1(F)[C@H](O)[C@@H](CO)O[C@H]1n1ccc(=S)[nH]c1=O
[2]
  CC50: > 400 µM
[3]
  CC50: > 400 µM
[5]
  CC50: > 400 µM

## CC(C)OC(=O)[C@H](C)NP(=O)(OC[C@H]1O[C@@H](n2ccc(=S)[nH]c2=O)[C@](C)(F)[C@@H]1O)Oc1ccccc1 (stereo partly drawn)
[2]
  CC50: > 300 µM
[4]
  CC50: > 300 µM
[6]
  CC50: > 200 µM
[7]
  CC50: > 400 µM
[8]
  CC50: > 400 µM

## CC(C)OC(=O)[C@H](C)NP(=O)(OC[C@H]1O[C@@H](n2ccc(=O)[nH]c2=O)[C@](C)(O)[C@@H]1O)Oc1ccccc1 (stereo partly drawn)
[7]
  CC50: 80 µM

## CC(C)OC(=O)[C@H](C)NP(=O)(OC[C@H]1O[C@@H](n2ccc(=O)[nH]c2=[Se])[C@](C)(O)[C@@H]1O)Oc1ccccc1 (stereo partly drawn)
[2]
  CC50: > 100 µM
[3]
  CC50: > 400 µM
[4]
  CC50: > 400 µM
[6]
  CC50: > 400 µM

## CC(C)OC(=O)[C@H](C)N[P@@](=O)(OC[C@H]1O[C@@H](n2ccc(=O)[nH]c2=O)[C@](C)(F)[C@@H]1O)Oc1ccccc1
[2]
  CC50: > 400 µM
[3]
  CC50: > 400 µM
[5]
  CC50: > 400 µM

## C[C@H](NP(=O)(O)OC[C@H]1O[C@@H](n2ccc(=O)[nH]c2=S)[C@](C)(O)[C@@H]1O)C(=O)O
[2]
  CC50: > 400 µM
[3]
  CC50: > 400 µM
[5]
  CC50: > 400 µM

## C[C@@]1(O)[C@H](O)[C@@H](COP(=O)(O)O)O[C@H]1n1ccc(=O)[nH]c1=S
[2]
  CC50: > 400 µM
[3]
  CC50: > 400 µM
[5]
  CC50: > 400 µM

## CC(C)OC(=O)[C@H](C)NP(=O)(OC[C@H]1O[C@@H](n2ccc(=S)[nH]c2=O)[C@H](O)[C@@H]1O)Oc1ccccc1 (stereo partly drawn) [drawing 445]
[9]
  CC50: > 400 µM

## CC(C)OC(=O)[C@H](C)NP(=O)(OC[C@H]1O[C@@H](n2ccc(=S)[nH]c2=O)[C@](C)(O)[C@@H]1O)Oc1ccccc1 (stereo partly drawn) [drawing 447]
[10]
  CC50: > 400 µM
[11]
  CC50: > 300 µM
[12]
  CC50: > 200 µM
[13]
  CC50: > 400 µM
[14]
  CC50: > 200 µM

## CC(C)OC(=O)[C@H](C)NP(=O)(OC[C@H]1O[C@@H](n2ccc(=O)[nH]c2=S)[C@H](O)[C@@H]1O)Oc1ccccc1 (stereo partly drawn) [drawing 451]
[10]
  CC50: > 400 µM

## C[C@@]1(O)[C@H](O)[C@@H](CO)O[C@H]1n1ccc(=O)[nH]c1=S [drawing 452]
[2]
  CC50: > 100 µM
[3]
  CC50: > 400 µM
[4]
  CC50: > 100 µM
[5]
  CC50: > 200 µM

## CC(C)OC(=O)[C@H](C)NP(=O)(OC[C@H]1O[C@@H](n2ccc(=O)[nH]c2=S)[C@](C)(O)[C@@H]1O)Oc1ccccc1 (stereo partly drawn) [drawing 453]
[2]
  CC50: > 400 µM
[3]
  CC50: > 400 µM
[4]
  CC50: > 300 µM
[5]
  CC50: > 300 µM
[6]
  CC50: 98 µM
[7]
  CC50: > 200 µM
[8]
  CC50: > 200 µM

## CC(C)OC(=O)[C@H](C)NP(=O)(OC[C@H]1O[C@@H](n2ccc(=S)[nH]c2=O)[C@](C)(O)[C@@H]1O)Oc1ccccc1 (stereo partly drawn) [drawing 455]
[2]
  CC50: > 400 µM
[3]
  CC50: > 400 µM
[4]
  CC50: > 300 µM
[5]
  CC50: 169 µM
[6]
  CC50: > 200 µM
[7]
  CC50: > 400 µM
[8]
  CC50: > 200 µM

## CC(C)OC(=O)[C@H](C)N[P@](=O)(OC[C@H]1O[C@@H](n2ccc(=O)[nH]c2=O)[C@](C)(F)[C@@H]1O)Oc1ccccc1 [drawing 460]
[5]
  CC50: > 400 µM

## CC(C)OC(=O)[C@H](C)NP(=O)(OC[C@H]1O[C@@H](n2ccc(=S)[nH]c2=O)[C@H](O)[C@@H]1O)Oc1ccccc1 (stereo partly drawn) [drawing 462]
[10]
  CC50: 369 µM
[3]
  CC50: > 400 µM
[5]
  CC50: > 400 µM

## CC(C)OC(=O)[C@H](C)NP(=O)(OC[C@H]1O[C@@H](n2ccc(=O)[nH]c2=S)[C@H](O)[C@@H]1O)Oc1ccccc1 (stereo partly drawn) [drawing 463]
[2]
  CC50: > 400 µM
[3]
  CC50: > 400 µM
[5]
  CC50: > 400 µM

## CC(C)OC(=O)[C@H](C)NP(=O)(OC[C@H]1O[C@@H](n2ccc(=O)[nH]c2=S)[C@](C)(O)[C@@H]1O)Oc1ccccc1 (stereo partly drawn) [drawing 470]
[15]
  EC50: 0.083 µM
[16]
  EC50: 0.0882 µM
[17]
  EC50: 0.0371 µM
[18]
  EC50: 0.132 µM
[19]
  EC50: > 10 µM
[20]
  CC50: > 10 µM

## CC(C)OC(=O)[C@H](C)N[P@](=O)(OC[C@H]1O[C@@H](n2ccc(=O)[nH]c2=O)[C@](C)(F)[C@@H]1O)Oc1ccccc1 [drawing 472]
[15]
  EC50: 0.0199 µM
[16]
  EC50: 0.0385 µM
[17]
  EC50: 0.0493 µM
[18]
  EC50: 0.0702 µM
[19]
  EC50: 0.287 µM
[20]
  CC50: > 2 µM

## C[C@@]1(O)[C@H](O)[C@@H](CO)O[C@H]1n1ccc(=O)[nH]c1=S [drawing 473]
[21]
  CC50: > 100 µM
[22]; Huh-7, read-out: Dengue Type 2 Huh-7 Cells (EC50 uM)
  EC50: > 100 µM
[22]; Vero, read-out: Dengue Type 2 Vero Cells (EC50 uM)
  EC50: 7.79 µM
